Several values for one entry are separate records, joined by “and”; a condition that tells them apart may be missing. Equal entries are not always repeated. Activity calls are given as the source filed them. No cut-off for these calls is given here.
Legend:
[1] = Inhibition of alpha-[32P]-GTP binding to human gamma-tubulin preincubated for 15 mins followed by alpha-[32P]-GTP addition measured after 30 mins
[2] = Cytotoxicity against human HeLa cells assessed as reduction in cell growth measured after 48 hrs by WST-8 assay; assay type: functional, cell-based
Homo sapiens = organism: Homo sapiens; assay: Inhibition of alpha-[32P]-GTP binding to human gamma-tubulin at 60 uM preincubated for 15 mins followed by alpha-[32P]-GTP addition measured after 30 mins relative to control
HeLa [3] = assay: Mitotic arrest in human HeLa cells at 100 nM measured after 18 hrs by propidium iodide-staining based flow cytometry; assay type: functional, cell-based
Sus scrofa [4] = organism: Sus scrofa; assay: Inhibition of microtubule associated proteins free porcine brain alpha/beta-tubulin polymerization at 3 uM measured after 10 mins by thermostatic spectrophotometric method
Sus scrofa [5] = organism: Sus scrofa; assay: Inhibition of [3H]vinblastine binding to microtubule associated proteins free porcine brain alpha/beta-tubulin assessed as remaining radiolabeled binding at 100 uM measured after 5 mins by centrifugal gel filtration method relative to control
HeLa [6] = assay: Inhibition of bipolar spindle formation in human HeLa cells at 100 and 300 nM measured after 6 hrs by DAPI staining-based fluorescence microscopic analysis; assay type: functional, cell-based
Sus scrofa [7] = organism: Sus scrofa; assay: Inhibition of [3H]colchicine binding to microtubule associated proteins free porcine brain alpha/beta-tubulin assessed as remaining radiolabeled binding at 100 uM measured after 5 mins by centrifugal gel filtration method relative to control
[8] = Inhibition of microtubule associated proteins free porcine brain alpha/beta-tubulin polymerization measured after 10 mins by thermostatic spectrophotometric method; design: species or system Sus scrofa
[9] = Binding affinity to porcine alpha/beta tubulin assessed as decrease in tryptophan fluorescence measured after 30 mins by tryptophan fluorescence assay; design: species or system Sus scrofa
HeLa [10] = assay: Inhibition of bipolar spindle formation in human HeLa cells at 1 uM measured after 6 hrs by DAPI staining-based fluorescence microscopic analysis; assay type: functional, cell-based

Row | SMILES | inhibition (Homo sapiens) [%] | Activity (Sus scrofa [5]) [%] | Activity (Sus scrofa [7]) [%] | IC50 [2] [µM] | Kd [9] [µM] | other results
1 | C#CCOc1cc2occ(-c3cc(OC)c4c(c3OC)OCO4)c(=O)c2cc1OC | – | – | – | – | – | IC50 [1]: 0.45 µM and 0.17 µM
2 | COc1cc2occ(-c3cc(OC)c4c(c3OC)OCO4)c(=O)c2cc1OC [GLAZIOVIANIN A] | – | 112 | 67.8 | 0.61 | 80 | inhibition (HeLa [10]): Active
3 | COc1cc2c(c(OC)c1OC)-c1ccc(OC)c(=O)cc1[C@@H](NC(C)=O)CC2 [COLCHICINE] | – | – | – | 0.02 | 26.6 | –
4 | CC[C@]1(O)C[C@@H]2CN(CCc3c([nH]c4ccccc34)[C@@](C(=O)OC)(c3cc4c(cc3OC)N(C)[C@H]3[C@@](O)(C(=O)OC)[C@H](OC(C)=O)[C@]5(CC)C=CCN6CC[C@]43[C@@H]65)C2)C1 | – | 5.3 | 127 | – | – | –

Further lines, with some results ahead:

Row | inhibition (Homo sapiens) [%] | Activity (Sus scrofa [5]) [%] | Activity (Sus scrofa [7]) [%] | SMILES | IC50 [2] [µM] | Kd [9] [µM] | other results
5 | 93.3 | – | – | COc1cc2c(=O)c(-c3cc(OC)c4c(c3OC)OCO4)coc2cc1OCc1ccccc1 | 12.8 | – | –
6 | 89.6 | 118 | 20.3 | COc1cc2occ(-c3cc(OC)c4c(c3OC)OCO4)c(=O)c2cc1OCc1ccccc1 | 0.07 | 1 | Activity (HeLa [3]): Active; inhibition (Sus scrofa [4]): Active; inhibition (HeLa [6]): Active; IC50 [8]: 2.1 µM
